Results from patent US10203331B2, “Single cell drug response measurements via live cell interferometry” (The Regents of the University of California, priority 2011, dated 2019).
Entries after “also recorded” stand apart in the source; their conditions may differ.

How the values were obtained:
Format in all cases: cell-based, human
CHOP (DDIT3) mRNA = test: Quantitative RT-PCR for CHOP (DDIT3) mRNA in treated H929 cells; conditions: treated H929 population, over five hours
Description: (§1) H929 cells were seeded in 6-well culture plates at a density of 1×10^6 cells/well. Before plating cells in the LCI's observation chamber, either 1 μL of Tunicamycin (T7765; Sigma-Aldrich) in DMSO, or DMSO alone were added to the media at a concentration of 10 mg/ml, DMSO/media (1:1000 dilution). Mass measurements commenced one hour after the cells were plated in the observation chamber in order to allow the experimental system to stabilize, i.e.; culture acclimation, temperature stabilization, etc. For cell cycle analysis, cells from each time point were collected and incubated with a hypotonic DNA-staining buffer containing propidium iodide and later analyzed by flow cytometry. RNA for each time point was extracted using the Trizol reagent (Invitrogen).
(§2) CDNA was synthesized from 3 μg of total RNA with oligo(dT) primers using the Superscript III first strand cDNA synthesis kit (Invitrogen). RT-PCR for XBP1 spliced and unspliced isoforms were performed using Platinum Taq (Invitrogen) at an annealing temperature of 58° C. for 25 cycles. Quantitative RT-PCR for CHOP (DDIT3) mRNA was performed using the SYBR green real time PCR kit (Diagenode) and an Applied Biosystems (Foster City, Calif., USA) 7700 sequence detector as described (33). Samples were analyzed for 36b4 expression as a normalization control. Primer sequences are available on request.

[1] = tested on: H929 multiple myeloma cells; test: LCI longitudinal single-cell mass accumulation profiling; design: mass accumulation rate (growth) of treated cells versus DMSO-treated controls: dose or concentration left out as unconfirmed; conditions: for mass accumulation rate (growth) of treated cells versus DMSO-treated controls: Tunicamycin, data over five hours
Excerpt: The live cell interferometer has been described in detail previously (1). Briefly, the system is an optical microscope, based on a modified Veeco NT9300 optical profiler, with a 20×0.28NA Michelson interference objective that allows for the observation of not only lateral features with typical optical resolution (1.16 μm for the 20× objective) but also height dimensions of reflective objects below the scale of one nanometer. The Michelson interferometer is composed of a beam splitter, reference mirror and compensating fluid cell to adjust for optical path differences induced by fluid surrounding the specimen. The phase shifting interferometry (PSI) (14) method was used to capture phase images of the cell bodies in situ. During measurement, a piezoelectric translator decreases the light path a small amount causing a phase shift between the test and reference beams. The system records the irradiance of the resulting interference pattern at many different phase shifts and then converts the irradiance to phase wavefront data by integrating the irradiance data using a PSI algorithm. As currently implemented, the autofocus and PSI measurement cycle takes 12 seconds. The PSI measurement itself takes 1-2 seconds, and is limited by the camera frame rate (60 fps). In this experiment, one set of 25 images, containing 400-1,000 cells, was captured every 7 minutes. Each set of 25 images contained hundreds of cells, with data from the first five images presented here, and therefore each run includes ˜80 cells. All cells within each of the selected images were measured.
The software native to the Veeco NT9300 allows automated optical thickness measurements of cells selected manually from the phase image. The optical thickness is converted to mass as described in the text, using the conversion constant, α=1.8×10^−3 m^3 kg^−1, consistent with Ross. (9) The boundary of each cell was automatically selected by an algorithm that partitions objects from the background using a threshold determined from the histogram of pixel heights. (15) Conversion of the raw phase image into optical thickness uses a series of well established ‘phase unwrapping’ routines. […] This error is easily detected as a non-physical discontinuity in optical thickness, and corrected by adding back one wavelength of optical thickness to the affected pixels. […]
H929 human multiple myeloma cells were maintained at 37° C. in 5% CO2 in RPMI 1640 growth media supplemented with 10% defined fetal bovine serum (HyClone) and antibiotics. […] Cell responses to external stimuli were measured for as long as seven hours in this configuration, and observed unperturbed cultures for up to twelve hours, although the upper limit of experiment duration has not been determined. […]

H929 cells = test: Cell cycle analysis, propidium iodide flow cytometry
Description: as §1

[2] = tested on: XBP1 mRNA splicing (XBP1-s); test: RT-PCR for XBP1 spliced and unspliced isoforms in treated H929 cells; conditions: treated H929 population, over five hours
Description: as §1, §2

Substance: Tunicamycin
- CHOP transcription factor expression (CHOP (DDIT3) mRNA): up-regulation
- time at which suppression of growth of the treated population appears ([1]; H929, treated vs untreated): within two hours
- mass accumulation rate (growth) of treated cells versus DMSO-treated controls [1]: grow more slowly than do the controls; also recorded: much lower
- mass accumulation rate (growth) of treated cells versus DMSO-treated controls ([1]; listed as TM): slowing mass accumulation
- cell shrinkage or apoptosis ([1]; with induction of XBP1 mRNA splicing): not cell shrinkage or apoptosis
- cells in G1/G0 (H929 cells; by the end of five hours of treatment): 50%
- G2/M phase population (H929 cells; shift pronounced after three hours of exposure): rapid reduction
- XBP1 alternative splicing (spliced form XBP1-s) [2]: alternative splicing
- XBP1 alternative splicing (spliced form XBP1-s) ([2]; listed as TM): up-regulation
